Results reported in ChEMBL document CHEMBL1201862, “PubChem BioAssay data set” (2004).
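Results reflect a 48-hour exposure of cells in 96-well plates to compound at five concentrations. GI50: concentration for 50% inhibition of growth.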 The source made the active and inactive calls. No stated cut-off is given here; in the data, active = GI50 up to about 1.1 µM and inactive = higher.

What was measured:
Experiment in all cases: NCI tumour cell line growth inhibition, 48 h
CCRF-CEM = system: CCRF-CEM
RXF 393 = system: RXF 393
EKVX = system: EKVX
UO-31 = system: UO-31
TK-10 = system: TK-10
HT-29 = system: HT-29
HCT-15 = system: HCT-15
786-0 = system: 786-0
Malme-3M = system: Malme-3M
CAKI-1 = system: CAKI-1
UACC-62 = system: UACC-62
HL-60 = system: HL-60
K562 = system: K562
SK-MEL-28 = system: SK-MEL-28
SF-268 = system: SF-268
OVCAR-8 = system: OVCAR-8
SF-295 = system: SF-295
DMS-273 = system: DMS-273
NCI-H226 = system: NCI-H226
MOLT-4 = system: MOLT-4
A549 = system: A549
KM12 = system: KM12
SNB-78 = system: SNB-78
UACC-257 = system: UACC-257
SK-MEL-5 = system: SK-MEL-5
HOP-92 = system: HOP-92
DMS-114 = system: DMS-114
SW-620 = system: SW-620
LXFL 529 = system: LXFL 529
ACHN = system: ACHN
A498 = system: A498
HCT-116 = system: HCT-116
HOP-18 = system: HOP-18
XF498 = system: XF498
NCI-H522 = system: NCI-H522
SK-MEL-2 = system: SK-MEL-2
SN12C = system: SN12C
SNB-19 = system: SNB-19
M19-MEL = system: M19-MEL
M14 = system: M14
SK-OV-3 = system: SK-OV-3
HOP-62 = system: HOP-62
NCI-H460 = system: NCI-H460
COLO 205 = system: COLO 205
OVCAR-3 = system: OVCAR-3
U-251 = system: U-251
OVCAR-4 = system: OVCAR-4
SF-539 = system: SF-539
SR = system: SR
SNB-75 = system: SNB-75
DLD-1 = system: DLD-1
LOX IMVI = system: LOX IMVI
NCI-H23 = system: NCI-H23
IGROV-1 = system: IGROV-1
RPMI-8226 = system: RPMI-8226
OVCAR-5 = system: OVCAR-5
KM-20L2 = system: KM-20L2

## COC(=O)c1c/c(=N\NC(=O)CC(=O)Nc2ccc(C)cc2)c2ccccc2o1
CCRF-CEM
  GI50: > 100 µM (inactive)
RXF 393
  GI50: > 100 µM (inactive)
EKVX
  GI50: > 100 µM (inactive)
UO-31
  GI50: > 100 µM (inactive)
TK-10
  GI50: > 100 µM (inactive)
HT-29
  GI50: > 100 µM (inactive)
HCT-15
  GI50: > 100 µM
786-0
  GI50: > 100 µM (inactive)
Malme-3M
  GI50: > 100 µM (inactive)
CAKI-1
  GI50: > 100 µM (inactive)
UACC-62
  GI50: > 100 µM (inactive)
HL-60
  GI50: > 100 µM (inactive)
K562
  GI50: > 100 µM (inactive)
SK-MEL-28
  GI50: > 100 µM (inactive)
SF-268
  GI50: > 100 µM (inactive)
OVCAR-8
  GI50: > 100 µM (inactive)
SF-295
  GI50: > 100 µM (inactive)
DMS-273
  GI50: > 100 µM (inactive)
NCI-H226
  GI50: > 100 µM (inactive)
MOLT-4
  GI50: > 100 µM (inactive)
A549
  GI50: > 100 µM (inactive)
KM12
  GI50: > 100 µM (inactive)
SNB-78
  GI50: > 100 µM (inactive)
UACC-257
  GI50: > 100 µM (inactive)
SK-MEL-5
  GI50: > 100 µM (inactive)
HOP-92
  GI50: > 100 µM (inactive)
DMS-114
  GI50: > 100 µM (inactive)
SW-620
  GI50: > 100 µM (inactive)
LXFL 529
  GI50: > 100 µM (inactive)
ACHN
  GI50: > 100 µM (inactive)
A498
  GI50: > 100 µM (inactive)
HCT-116
  GI50: > 100 µM (inactive)
HOP-18
  GI50: > 100 µM (inactive)
XF498
  GI50: > 100 µM (inactive)
NCI-H522
  GI50: > 100 µM (inactive)
SK-MEL-2
  GI50: > 100 µM (inactive)
SN12C
  GI50: > 100 µM (inactive)
SNB-19
  GI50: > 100 µM (inactive)
M19-MEL
  GI50: > 100 µM (inactive)
M14
  GI50: > 100 µM (inactive)
SK-OV-3
  GI50: > 100 µM (inactive)
HOP-62
  GI50: > 100 µM (inactive)
NCI-H460
  GI50: > 100 µM (inactive)
COLO 205
  GI50: > 100 µM (inactive)
OVCAR-3
  GI50: > 100 µM (inactive)
U-251
  GI50: > 100 µM (inactive)
OVCAR-4
  GI50: > 100 µM (inactive)
SF-539
  GI50: > 100 µM (inactive)
SR
  GI50: > 100 µM (inactive)
SNB-75
  GI50: > 100 µM (inactive)
DLD-1
  GI50: > 100 µM (inactive)
LOX IMVI
  GI50: > 100 µM (inactive)
NCI-H23
  GI50: > 100 µM (inactive)
IGROV-1
  GI50: > 100 µM (inactive)
RPMI-8226
  GI50: > 100 µM (inactive)
OVCAR-5
  GI50: > 100 µM (inactive)
KM-20L2
  GI50: > 100 µM (inactive)
